In patent publication US12447198B2, “Peptides and fragments for treating diabetes and associated metabolic diseases” (Betavive Ltd., priority 2021, dated 2025):
“Also recorded” adds a separate entry of the source.

Legend:
NOD mice = experiment: Islet cell staining for glucagon and insulin in NOD mice; type: in vivo, mouse; details: NOD mice treated with IGF-2 for 13 weeks
STZ-treated mice [1] = experiment: Short term effects of a single IGF-2 injection on glucose and IGF-2 levels, 240 minute time course; type: in vivo, mouse
Experimental: More specifically, the top panel illustrates the drop in glucose blood levels in three STZ-treated mice after receiving a 800 μg/kg/day dose of IGF-2 over a 240 minute time course. […] IGF-2 is part of a complex system comprising IGF-1 and IGF-2 along with binding proteins, proteases and other interacting molecules. […] Normoglycemia is maintained while total serum IGF-2 is reduced to very low levels. […] Without being bound by this theory, it is believed that a slow release of IGF-2 from a serum complex can maintain normal blood glucose levels.

C57BL/6 STZ mice = experiment: Fasting blood glucose in STZ-induced diabetic C57BL/6 mice treated with IGF-2; type: in vivo, mouse; details: for fasting glucose levels during the ten-day course of treatment: day 0 and ten more times within ten days
Experimental: C57BL/6 mice male 8-10 weeks old, housed under conventional conditions and allowed laboratory chow and water ad libitum, were used in the experiments described below in Examples 3-4. Within each experiment, animals were matched by age and weight (20-24 g) and randomly divided into groups to receive different treatments. Diabetes was induced by one or more doses of streptozotocin (STZ).
Briefly, animals received intraperitoneally (i.p.) 100 mg/kg (b.w.) STZ (Cayman Chemical, Ann Arbor, MI) dissolved in citrate buffer on pH 4.5 (this procedure was repeated if needed). Clinical diabetes was defined by hyperglycemia (blood glucose levels >300 mg/dl in fasted animals). Fasting blood glucose levels were measured three times per week and samples were taken from the tail tip after starvation for 6 hours throughout the experiment.
(§1) Fasting blood glucose levels (mg/dL) were determined using the Accu-Chek Performa glucometer (Roche Diagnostics, Mannheim, Germany). After approximately two weeks of stable hyperglycemia, C57BL/6 STZ mice received exogenous injections of recombinant human IGF-2 (0.3-12 mg/kg/day injection) intraperitoneally for 5-10 consecutive days. During post-treatment follow-up period and upon termination, mice were tested for: fasting glucose, body weight, glucose tolerance test (IPGTT), serum C-peptide level, serum insulin level, and full blood and histological analysis (CBC, Chemistry, Insulin IHC and H&E).

STZ-treated mouse islets = experiment: MTT viability of STZ-treated mouse islets; type: cell-based; details: increasing concentrations
From the text: Yellow dye MTT is converted to a purple dye by mitochondrial reductase in viable cells. Therefore, the amount of purple dye present determined by measuring optical density of cells at 570 nm serves as a measurement of cell viability.

β-MIN6 cells = experiment: Cell count (cell proliferation) of β-MIN6 cells; type: cell-based, mouse; details: 5 nM, 20 nM, 80 nM, 1 week treatment
From the text: β-MIN6 cells serve as an in vitro model of mouse pancreatic islets. β-MIN6 cells were used as an in vitro model to measure the effects of treatment with IGF-2.

[2] = Safety/toxicity: pathology of blood samples and tissue samples from thirty organs; type: in vivo; details: end of 10 days of treatment, 24 days after termination, and 100 days after termination of 30 days of treatment
db/db mice = experiment: Serum insulin in db/db mice after long-term IGF-2 treatment; type: in vivo, mouse; details: 12,000 μg/kg daily dose for 68 days, measured 6.5 weeks after the end of treatment
Experimental: In this experiment, one group of db/db mice (labeled FA X1) was injected with 3000 μg/kg of IGF-2 once a day for 68 days, a second group of db/db mice (labeled FA X4) was injected with a daily dose of 12000 μg/kg of IGF-2 divided in two injections per day for 68 days, and a third group of db/db mice was injected with saline. Serum insulin levels were measured 6.5 weeks after the end of the 68 day treatment. Treatment with the 12,000 μg/kg daily dose increased serum insulin levels by about 50% with respect to the control.

[3] = system: human pancreatic islet cells; experiment: Insulin secretion of human pancreatic islet cells in response to a glucose pulse; type: cell-based; details: 50 nM for four days
STZ-treated mice [4] = experiment: Intraperitoneal glucose tolerance test 50 days post-treatment; type: in vivo, mouse
Experimental: In this experiment, four STZ-treated mice were treated with 12,000 μg/kg/day of IGF-2 (four injections of 3000 μg/kg/day) 5 days and two mice were treated for 10 days. A glucose tolerance test was performed 50 days post-treatment with IGF-2 by challenging the treated mice with a 2 grams/kg dose of glucose and determining the blood glucose level over a 180 minute time course. The blood glucose curves of the treated mice were compared to results for a saline control, and normal (nondiabetic) obese and normal (nondiabetic) lean mice based on published literature (Jorgensen et al., J. Am Assoc. Lab. Animal Sci 2017 56(1): 95-97).

STZ-treated mice [5] = experiment: Serum insulin and c-peptide levels four weeks after IGF-2 treatment; type: in vivo, mouse; details: four weeks post treatment
Experimental: as §1
C-peptide is a biomarker used to assess pancreatic beta cell function and is normally produced in equimolar amounts to endogenous insulin. Leighton et al., A Practical Review of C-Peptide Testing in Diabetes, Diabetes Ther. 2017 June; 8 (3): 475-487.

[6] = Blood level of total and free IGF-2 after 40 μg intraperitoneal injection (ELISA); type: in vivo, mouse; details: 240 minute time frame
From the text: Without being bound by this theory, it is believed that IGF-2 binding proteins may initially inactivate the biological activity of free IGF-2. And over time, the bond between IGF-2 and the binding protein may be released, increasing the bioavailability of IGF-2 and leading to a longer term effective treatment.

mice = experiment: Blood glucose concentration kinetics of IGF-2 vs. insulin in a glucose tolerance test; type: in vivo, mouse; details: IGF-2 800 μg/kg
From the text: IGF-2 therefore provides an effect that mimics insulin within the body, and that effect is referred to herein as an “insulinomimetic” effect. […] In this example, administering IGF-2 can provide better results than administering insulin with respect to blood glucose levels, even when only a single dose was used. Without being bound by this theory, it is possible that the IGF-2 combines with a number of binding proteins in the blood and its active free form is then released slowly from the complex.

insulin-like growth factor 2 [IGF-2]
islet cells, histological staining for glucagon and insulin (NOD mice): fully functional islet cells
free IGF-2 levels relative to total IGF-2 (STZ-treated mice [1]; 800 μg/kg dose, 240 minute time course): a small fraction of the total IGF-2 concentration
period for which the normal blood glucose level lasts (STZ-treated mice [1]; single 800 μg/kg dose intraperitoneally): over four hours
blood glucose level reached (normal level) (STZ-treated mice [1]; single 800 μg/kg dose intraperitoneally, from hyperglycemic levels of 300-500 mg/dl): 100 to 200 mg/dL
hypoglycemia (C57BL/6 STZ mice; 3000 μg/kg/day, also when the dose was increased to 12,000 μg/kg/day): Hypoglycemia was never observed
hypoglycemia (C57BL/6 STZ mice; 10:1 ratio of dosages, between 3000 μg and 300 μg): did not cause hypoglycemia
fasting glucose levels during and shortly after the course of treatment (C57BL/6 STZ mice; IGF-2 300 μg/kg/day, initial dose and ten additional doses over ten days, STZ mice B5, B6, B3, B4): did not return to a normal range; also recorded: temporary drop in fasting glucose levels from days 10-25
long-term results on fasting glucose levels (C57BL/6 STZ mice; IGF-2 300 μg/kg/day, STZ mice B5, B3, B4): long-term results were not observed
fasting glucose levels during the ten-day course of treatment (C57BL/6 STZ mice; IGF-2 800 μg/kg/day, STZ mice A8, A6, F3, F4): returned to a normal range
blood glucose levels remaining, mice with full or almost full resolution (C57BL/6 STZ mice; IGF-2 800 μg/kg/day, half the mice (FIGS. 5A and 5B)): ~200 mg/dL
fasting glucose levels after the course of treatment (long term) (C57BL/6 STZ mice; IGF-2 800 μg/kg/day, mice A8 and A6): remained in the normal range until the end of the experiment; also recorded: remained in the normal range until STZ was provided again
fasting glucose levels after the ten day course of injections ended (C57BL/6 STZ mice; IGF-2 800 μg/kg/day, mice F3 and F4): around 400
blood glucose levels remaining, mice with partial improvement (C57BL/6 STZ mice; IGF-2 800 μg/kg/day, the remaining mice (FIGS. 6A and 6B)): ~400 mg/dL
fasting glucose levels during the ten-day course of treatment (C57BL/6 STZ mice; IGF-2 3000 μg/kg/day, STZ mice C1, C8, C6, F1): returned to a normal range
long-term improvements in blood glucose levels (C57BL/6 STZ mice; IGF-2 12,000 μg/kg daily on each of 12 consecutive days): long-term improvements in blood glucose levels were obtained
long-term improvements in blood glucose levels (C57BL/6 STZ mice; IGF-2 12,000 μg/kg daily on only 5 consecutive days): long-term improvements in blood glucose levels were not obtained
time to reduce the blood glucose level to a normal range (C57BL/6 STZ mice; daily intraperitoneal 3000 μg/kg/day, averaged over four mice): 3 to 5 days
blood glucose level reached (normal range), averaged over four mice (C57BL/6 STZ mice; daily intraperitoneal 3000 μg/kg/day, maintained for the remainder of the 10 day window): 100 to 200 mg/dL
time post treatment for which normal blood glucose levels are maintained (C57BL/6 STZ mice; four mice, single 10 day course at 3000 μg/kg/day, long term follow up): at least 300 days
mouse islet viability (MTT, optical density at 570 nm) (STZ-treated mouse islets): increased in a dose dependent manner
cell count (cell proliferation) (β-MIN6 cells): increases cell proliferation in a dose-dependent manner
pathologies related to treatment in blood samples and tissue samples from thirty organs [2]: No pathologies were identified
increase of serum insulin levels with respect to the control (db/db mice): about 50%
increase of insulin secretion in response to a glucose pulse compared to untreated cells [3]: ~50%
number of IGF-2-treated mice permanently cured (STZ-treated mice [4]; 12,000 μg/kg/day, four mice 5 days and two mice 10 days): Five
glucose levels in the glucose tolerance test (STZ-treated mice [4]; 2 grams/kg glucose, 50 days post-treatment, Mouse O1, not permanently cured): higher than the normal obese mouse
response to the glucose tolerance test (blood glucose over 180 minutes) (STZ-treated mice [4]; 2 grams/kg glucose, 50 days post-treatment, the five permanently cured mice): fell between the glucose tolerance results from the literature for non-diabetic obese mice and non-diabetic lean mice
increase in c-peptide levels (STZ-treated mice [5]; four STZ-treated mice): 12 fold
increase of serum insulin compared to STZ treated control mice (STZ-treated mice [5]; permanently cured mice): 50%
peak free IGF-2 in the blood [6]: 1 µg
peak total concentration of IGF-2 total in the blood [6]: about 16 μg
time at which glucose levels began to rise relative to disappearance of IGF-2 from the blood (mice; compared with FIG. 13): two hours after the IGF-2 was no longer detectable in the blood
glucose level after administration (mice; glucose tolerance test in mice, insulin 1 unit per kg): the glucose level decreased
time after which the recovery in glucose levels began (mice; single dose, insulin 1 unit per kg): after six hours
